Measurements reported in article PMC11369081, “Molecular mechanism of prolactin-releasing peptide recognition and signaling via its G protein-coupled receptor” (Cell Discovery, 2024).
Peptide text beside a SMILES is read from it.

Columns and labels:
Format in all cases: cell-based
[1] = target: T1, PrRPR V145A (Homo sapiens, UniProt P49683, V145A); assay: BRET2 Gi dissociation, V145A; details: V145A (3.36), Gi-coupling, AD293 cells; mean ± S.E.M., n = 3; P 0.9852 vs WT; read-out: BRET2 pEC50 (converted)
T1 construct: expressed in transfected cells; host or cells: AD293 cells
T1 sequence (P49683 whole entry V145A): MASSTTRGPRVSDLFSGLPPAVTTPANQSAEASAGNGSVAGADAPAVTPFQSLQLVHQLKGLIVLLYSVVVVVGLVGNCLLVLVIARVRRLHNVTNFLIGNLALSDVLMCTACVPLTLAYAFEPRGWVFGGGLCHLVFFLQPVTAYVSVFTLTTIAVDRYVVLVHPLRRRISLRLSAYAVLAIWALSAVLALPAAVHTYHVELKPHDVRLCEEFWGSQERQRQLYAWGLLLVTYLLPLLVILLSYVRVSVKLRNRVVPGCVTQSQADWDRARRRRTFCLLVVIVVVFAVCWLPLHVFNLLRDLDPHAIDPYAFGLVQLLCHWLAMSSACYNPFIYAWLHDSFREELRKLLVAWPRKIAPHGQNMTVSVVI
Description: (§1) AD293 cells (Agilent) were propagated in Dulbecco’s Modified Eagle Medium (DMEM, Thermo Fisher Scientific), enriched with 10% fetal bovine serum (FBS, Thermo Fisher Scientific), and maintained at 37 °C in a 5% CO2 environment. Cells were then seeded in 6-well dishes at a density of 130,000–150,000 cells per mL and allowed to incubate overnight. On the next day, cells were transfected with plasmids at a 1:1:1:1 ratio for receptor:Gα-RLuc8:Gβ:Gγ-GFP2[52]. PEI MAX 40 K (BIOHUB) was utilized to form complex with the plasmids at a ratio of 3 µL PEI per µg of plasmids, in OptiMEM (Gibco-Thermo Fisher Scientific) at a concentration of 10 ng plasmids per µL OptiMEM. After 24 h of incubation, the culture was harvested by centrifugation with PBS. The cell suspension was then allocated into a white 384-well plate at a volume of 30 µL per well, followed by the addition of 10 µL of freshly prepared 50 µM coelenterazine 400a (Yeasen). Following a 15-min equilibration period, cells were treated with 10 µL of ligand for an additional 5 min. Plates were subsequently read in a BioTek Synergy H1 microplate reader (BioTek) equipped with 395 nm (RLuc8-coelenterazine 400a) and 510 nm (GFP2) emission filters. BRET2 ratios were calculated as the ratio of the GFP2 emission to RLuc8 emission. Data were normalized to the baseline response of the ligand. […]

[2] = target: T2, PrRPR E213A (Homo sapiens, UniProt P49683, E213A); assay: BRET2 Gi dissociation, E213A; details: E213A (45.52), Gi-coupling, AD293 cells; mean ± S.E.M., n = 3; P <0.0001 vs WT; read-out: BRET2 pEC50 (converted)
T2 construct: expressed in transfected cells; host or cells: AD293 cells
T2 sequence (P49683 whole entry E213A): as the sequence (P49683 whole entry V145A) above, with A145V, E213A counted along it
Description: as §1

[3] = target: T3, PrRPR F313A (Homo sapiens, UniProt P49683, F313A); assay: BRET2 Gq dissociation, F313A; details: F313A (7.31), Gq-coupling, AD293 cells; mean ± S.E.M., n = 3; P 0.0012 vs WT; read-out: BRET2 pEC50 (converted)
T3 construct: Flag; expressed in transfected cells; host or cells: AD293 cells
T3 sequence (P49683 whole entry F313A): as the sequence (P49683 whole entry V145A) above, with A145V, F313A counted along it
Description: as §1, with “Following a 15-min equilibration period, cells were treated with 10 µL of ligand for an additional 5 min.” left out, “emission.” for “emission. Data were normalized to the baseline response of the ligand.”
(§2) Supplementary Fig. S4 | Effects of mutations in the ligand-binding pocket and G protein intereface of Gq coupled PrRPR by BRET2 assay. […] BRET2 assay signals were measured after stimulation with PrRP20. […]

[4] = target: T4, PrRPR T117A (Homo sapiens, UniProt P49683, T117A); assay: BRET2 Gq dissociation, T117A; details: T117A (2.61), Gq-coupling, AD293 cells; mean ± S.E.M., n = 3; P <0.0001 vs WT; read-out: BRET2 pEC50 (converted)
T4 construct: expressed in transfected cells; host or cells: AD293 cells
T4 sequence (P49683 whole entry T117A): as the sequence (P49683 whole entry V145A) above, with T117A, A145V counted along it
Description: as §1, with “Following a 15-min equilibration period, cells were treated with 10 µL of ligand for an additional 5 min.” left out, “emission.” for “emission. Data were normalized to the baseline response of the ligand.”
as §2

[5] = target: T5, PrRPR H295A (Homo sapiens, UniProt P49683, H295A); assay: BRET2 Gi dissociation, H295A; details: H295A (6.52), Gi-coupling, AD293 cells; mean ± S.E.M., n = 3; P 0.8032 vs WT; read-out: BRET2 pEC50 (converted)
T5 construct: Flag; expressed in transfected cells; host or cells: AD293 cells
T5 sequence (P49683 whole entry H295A): as the sequence (P49683 whole entry V145A) above, with A145V, H295A counted along it
Description: as §1

[6] = target: T6, PrRPR Q141A (Homo sapiens, UniProt P49683, Q141A); assay: BRET2 Gi dissociation, Q141A; details: Q141A (3.32), Gi-coupling, AD293 cells; mean ± S.E.M., n = 3; P 0.0002 vs WT; read-out: BRET2 pEC50 (converted)
T6 construct: expressed in transfected cells; host or cells: AD293 cells
T6 sequence (P49683 whole entry Q141A): as the sequence (P49683 whole entry V145A) above, with Q141A, A145V counted along it
Description: as §1

[7] = target: T7, PrRPR P142A (Homo sapiens, UniProt P49683, P142A); assay: BRET2 Gi dissociation, P142A; details: P142A (3.33), Gi-coupling, AD293 cells; mean ± S.E.M., n = 3; P 0.0035 vs WT; read-out: BRET2 pEC50 (converted)
T7 construct: expressed in transfected cells; host or cells: AD293 cells
T7 sequence (P49683 whole entry P142A): as the sequence (P49683 whole entry V145A) above, with P142A, A145V counted along it
Description: as §1

[8] = target: T8, PrRPR Y120A (Homo sapiens, UniProt P49683, Y120A); assay: BRET2 Gi dissociation, Y120A; details: Y120A (2.64), Gi-coupling, AD293 cells; mean ± S.E.M., n = 3; P <0.0001 vs WT; read-out: BRET2 pEC50 (converted)
T8 construct: expressed in transfected cells; host or cells: AD293 cells
T8 sequence (P49683 whole entry Y120A): as the sequence (P49683 whole entry V145A) above, with Y120A, A145V counted along it
Description: as §1

[9] = target: T8, PrRPR Y120A; assay: BRET2 Gq dissociation, Y120A; details: Y120A (2.64), Gq-coupling, AD293 cells; mean ± S.E.M., n = 3; P <0.0001 vs WT; read-out: BRET2 pEC50 (converted)
Description: as §1, with “Following a 15-min equilibration period, cells were treated with 10 µL of ligand for an additional 5 min.” left out, “emission.” for “emission. Data were normalized to the baseline response of the ligand.”
as §2

[10] = target: T9, PrRPR E212A (Homo sapiens, UniProt P49683, E212A); assay: BRET2 Gq dissociation, E212A; details: E212A (45.51), Gq-coupling, AD293 cells; mean ± S.E.M., n = 3; P <0.0001 vs WT; read-out: BRET2 pEC50 (converted)
T9 construct: expressed in transfected cells; host or cells: AD293 cells
T9 sequence (P49683 whole entry E212A): as the sequence (P49683 whole entry V145A) above, with A145V, E212A counted along it
Description: as §1, with “Following a 15-min equilibration period, cells were treated with 10 µL of ligand for an additional 5 min.” left out, “emission.” for “emission. Data were normalized to the baseline response of the ligand.”
as §2

[11] = target: T10, PrRPR T233A (Homo sapiens, UniProt P49683, T233A); assay: BRET2 Gq dissociation, T233A; details: T233A (5.46), Gq-coupling, AD293 cells; mean ± S.E.M., n = 3; P <0.0001 vs WT; read-out: BRET2 pEC50 (converted)
T10 construct: Flag; expressed in transfected cells; host or cells: AD293 cells
T10 sequence (P49683 whole entry T233A): as the sequence (P49683 whole entry V145A) above, with A145V, T233A counted along it
Description: as §1, with “Following a 15-min equilibration period, cells were treated with 10 µL of ligand for an additional 5 min.” left out, “emission.” for “emission. Data were normalized to the baseline response of the ligand.”
as §2

[12] = target: T11, PrRPR W127A (Homo sapiens, UniProt P49683, W127A); assay: BRET2 Gi dissociation, W127A; details: W127A (23.50), Gi-coupling, AD293 cells; mean ± S.E.M., n = 3; P <0.0001 vs WT; read-out: BRET2 pEC50 (converted)
T11 construct: expressed in transfected cells; host or cells: AD293 cells
T11 sequence (P49683 whole entry W127A): as the sequence (P49683 whole entry V145A) above, with W127A, A145V counted along it
Description: as §1

EC50 [1]: 2.63 nM
EC50 [2]: 1380 nM
EC50 [3]: 3.39 nM
EC50 [4]: 107 nM
EC50 [5]: 3.02 nM
EC50 [6]: 7.59 nM
EC50 [7]: 6.46 nM
EC50 [8]: 3.39 µM
EC50 [9]: 191 nM
EC50 [10]: 28.8 nM
EC50 [11]: 5.75 nM
EC50 [12]: 490 nM
SMILES: CC[C@H](C)[C@H](NC(=O)CNC(=O)[C@H](CCCNC(=N)N)NC(=O)[C@H](CO)NC(=O)[C@H](C)NC(=O)[C@H](Cc1ccc(O)cc1)NC(=O)[C@H](Cc1c[nH]c2ccccc12)NC(=O)[C@H](C)NC(=O)[C@@H]1CCCN1C(=O)[C@H](CC(N)=O)NC(=O)[C@@H](NC(=O)[C@H](CC(=O)O)NC(=O)[C@@H]1CCCN1C(=O)[C@@H](N)[C@@H](C)O)[C@@H](C)CC)C(=O)N[C@@H](CCCNC(=N)N)C(=O)N1CCC[C@H]1C(=O)N[C@H](C(=O)NCC(=O)N[C@@H](CCCNC(=N)N)C(=O)N[C@@H](Cc1ccccc1)C(N)=O)C(C)C [PrRP20] (H-TPDINPAWYASRGIRPVGRF-NH2)
